Like-named read-outs stand apart in the source and are kept apart here.
How the values were obtained:
FIN13 mRNA [1] = experiment: FIN13 mRNA in ovaries of mice stimulated with DES; format: in vivo; settings: mouse
Method: Northern analysis. RNA was electrophoresed on a 1% formaldehyde agarose gel, transferred overnight in 20×SSC to Genescreen-Plus nylon filters (Du Pont) and fixed by u.v. crosslinking. Filters were prehybridized, hybridized with radiolabeled cDNA probes and washed under standard conditions. To stimulate folliculogensis, immature mice (3 weeks) were injected subcutaneously with diethylstilbesterol (DES) or vehicle essentially as described previously (Guthridge et al., Growth Factors, 7:15 (1992)), and RNA was prepared from ovaries four days after stimulation.

his-FIN13 = molecular target: T1, his-FIN13 (Mus musculus, UniProt Q61074); experiment: Phosphatase assay of bacterially expressed his-FIN13 with 32P-labelled casein; format: biochemical
T1 construct: Purified his-tagged full length FIN13 (his-FIN13); made in house; host or cells: E. coli BL21(DE3)
T1 sequence (Q61074 151-542 limits assumed): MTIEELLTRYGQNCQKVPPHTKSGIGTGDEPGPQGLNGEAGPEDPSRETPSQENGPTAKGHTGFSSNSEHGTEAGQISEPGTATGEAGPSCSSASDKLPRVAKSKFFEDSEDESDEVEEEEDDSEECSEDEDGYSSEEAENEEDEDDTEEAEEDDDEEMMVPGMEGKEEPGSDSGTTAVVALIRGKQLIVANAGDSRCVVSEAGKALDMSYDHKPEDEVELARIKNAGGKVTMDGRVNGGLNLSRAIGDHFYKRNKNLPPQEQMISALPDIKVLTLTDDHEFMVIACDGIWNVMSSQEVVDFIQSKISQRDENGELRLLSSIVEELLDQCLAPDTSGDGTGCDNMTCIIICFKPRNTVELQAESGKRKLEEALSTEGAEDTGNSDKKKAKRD
Method: FIG. 5. Phosphatase activity of bacterially expressed FIN13. Purified his-tagged full length FIN13 (his-FIN13) or his-tagged catalytic domain FIN13 (his-FIN13-cat) were examined for their ability to dephosphorylate ^32 P-labelled cascin in vitro as described in the Materials and Methods. Phosphatase assays were performed in the absence of his-FIN13 (No FIN13; open bar) or with his-FIN13 incubated in the presence of 10 mM of the indicated divalent cation (MgCl2, ZnCl2, CaCl2 or MnCl2)(solid bars) or in the presence of the indicated mM concentrations of MnCl2 (half-tone bars). +EDTA: indicates his-FIN13 incubated in the presence of 10 mM EDTA and 10 mM MnCl2. his-FIN13-cat was incubated in the presence of the indicated mM concentrations of MnCl2 (cross-hatched bars). his-FIN13 was also incubated in the presence of 1 μM okadaic acid (OA), 20 mg/ml poly L-lysine (PL-L), 20 mg/ml protamine sulfate (PS). All incubations were performed for 1 h at 30° C.
Preparation of ^32 P-labelled casein. Casein (10 mg)(Sigma) was labelled with ^32 P using 10U of the catalytic subunit of cAMP dependent protein kinase (Sigma) in 50 mM Tris-HCl pH 7.0, 0.1 mM EGTA, 10 mM Mg-acetate, 0.1% β-mercaptoethanol, and 0.5 mCi of ^32 PγATP for 12 h at 30° C. The reaction mixture was then precipitated at 4° C. in 20% TCA. Labelled casein was recovered by centrifugation, the pellet washed 5 times in 100% acetone and resuspended in 50 mM Tris-HCl, 0.1 mM EGTA.
Phosphatase assay. The phosphatase activity of purified FIN13 expressed in bacteria as a fusion protein with N- and C-terminal his-tags was assessed in vitro using ^32 P-labelled casein as a substrate. For preparation of his-FIN13 and his-FIN13-cat from bacteria, the BL21(DE3) strain transformed with pEThis-FIN13 or pEThis-FIN13-cat were induced with 0.2 mM IPTG for 2 h following which the cells were recovered by centrifugation, resuspended in column buffer (50 mM sodium phosphate, pH 8.0, 300 mM NaCl, 1 mM PMSF) and frozen overnight at -70° C. The bacteria were then lysed by sonication at 4° C. and the extract cleared by centrifugation. The supernatant was then adsorbed to Ni-NTA-agarose (Qiagen) at 4° C. for 1 h. The resin was then washed extensively in column buffer without PMSF and his-FIN13 or his-FIN13-cat were eluted using 25 mM Tris-HCl pH 7.2, 100 mM NaCl containing […] imidazole (Sigma). In addition, the phosphatase activity of FIN13 expressed in HeLa cells was also determined in an immune complex using ^32 P-labelled casein as a substrate. For preparation of immune complexes of myc-FIN13, HeLa cells were transfected with […] of pRKmyc-FIN13 or pRK5. Cells were lysed 24 h after transfection in lysis buffer (10 mM Na-phosphate pH 7.4, 100 mM NaCl, 1% TRITON X-100, 10 mM EDTA) also containing a protease/phosphatase inhibitor cocktail (1 mM PMSF, 1 μg/ml pepstatin, 1 μg/ml leupeptin, 1 μg/ml aprotinin, 10 mM Na-orthovanadate, 80 mM NaF, 80 mM β-glycerolphosphate, 10 μM okadaic acid). Cleared lysates (100 μg total protein) were immunoprecipitated with anti-myc monoclonal antibody (9E10) adsorbed to 30 μl protein G sepharose (Zymed) or anti-FIN13 antiserum adsorbed to 30 μl protein A sepharose (Zymed) for 1.5 h at 4° C. The anti-FIN13 polyclonal antiserum (630) was generated against the full length his-FIN13 expressed and purified from bacteria. The IPs were then washed 5 times with lysis buffer, once with 10 mM Tris-HCl pH 7.0, 100 mM NaCl and 5 mM MnCl2, and twice with phosphatase reaction buffer (10 mM Tris-HCl pH 7.0, 0.1 mM EGTA, 10 mM DTT and 10 mM MnCl2) containing 1 μM okadaic acid. Purified his-FIN13, his-FIN13-cat or myc-lPs were then examined for phosphatase activity by incubating the indicated FIN13 preparation in the presence of phosphatase reaction buffer containing ^32 P-labelled casein (1×10^5 cpm; approx. 1 μl) at 30° C. for up to 2 h.

myc-FIN13 = molecular target: T2, myc-FIN13 (Mus musculus, UniProt Q61074); experiment: Phosphatase assay of myc-FIN13 immunoprecipitated from transfected HeLa cells; format: biochemical
T2 construct: in-frame with, and N-terminal to, the FIN13 open reading frame; expressed in transfected cells; host or cells: HeLa
T2 sequence (Q61074 151-542): T1 sequence (Q61074 151-542 limits assumed)
Method: FIGS. 6A-6C. Phosphatase activity and expression of FIN13 in mammalian cells. HeLa cells transfected with either pRK5 vector or pRKmyc-FIN13 (expressing myc-FIN13) and harvested 24 h later, were lysed in lysis buffer and cleared extracts ([…]) were immunoprecipitated with either anti-myc antibodies (9E10) or anti-FIN13 antiserum (630). IPs were then divided and subjected to either Western analysis for the detection of FIN13 expression or a phosphatase assay. For the detection of FIN13 (A), 1/4 of the IP was boiled in sample buffer and loaded onto a 10% polyacrylamide gel, electrophoresed and transferred to a nitrocellulose filter. Western blot analysis was performed using the 630 antiserum at 1:500 as described in Materials and Methods. For analysis of phosphatase activity (B), the ability of myc-FIN13 immunoprecipitates (1/8 of IP) to dephosphorylate ^32 P-labelled casein was examined in vitro in the presence of okadaic acid and MnCl2 as described in Materials and Methods. […]
Phosphatase assay. The phosphatase activity of purified FIN13 expressed in bacteria as a fusion protein with N- and C-terminal his-tags was assessed in vitro using ^32 P-labelled casein as a substrate. […] In addition, the phosphatase activity of FIN13 expressed in HeLa cells was also determined in an immune complex using ^32 P-labelled casein as a substrate. […]

FIN13 mRNA [2] = experiment: Northern analysis of FIN13 mRNA induction in NIH 3T3 cells; format: cell-based, mouse
Method: FIG. 4. Regulation of FIN13 (and other FINs) mRNA in response to FGF-4. NIH 3T3 cells were starved for 48 h in DMEM/0.5% CS and stimulated for the indicated times up to 24 h with 100 ng/ml FGF-4. A15 cells and NIH 3T3 cells growing asynchronously in the presence of DMEM/10% CS are indicated as A15 and 3T3 respectively. Total RNA (6 μg) was examined by Northern analysis with ^32 P-labelled cDNAs for the indicated FIN genes shown on the left. The position of 28S and 18S rRNA are indicated on the right.
(§1) Cell culture. Mouse NIH 3T3 cells and A15 cells were cultured in Dulbecco's modified Eagle's medium (DMEM) containing 10% calf serum (CS). A15 cells are a NIH 3T3 cell line transformed with a human genomic fragment of the FGF-4 gene and have been previously described (Delli Bovi and Basilico, 1987, Proc. Natl. Acad. Sci. USA 84:5660). Rat pheochromocytoma PC12 cells were cultured in DMEM containing 10% heat inactivated horse serum (HS) (Gemini Bioproducts), 5% fetal bovine serum (FBS) (Gemini Bioproducts). […] Greater than 90% of PC12 cells had differentiated after 96 h or FGF-4 or NGF treatment as determined by the induction of neurite-like processes. […]
A maximum induction of 6-fold following 18 h stimulation was observed. […] The effect of cycloheximide on the induction of FIN13 mRNA was evaluated as follows. […]

Protein phosphatase 2A = Protein phosphatase 2A (Homo sapiens, UniProt P67775); experiment: Protein phosphatase 2A control phosphatase assay; format: biochemical; settings: 2 h, presence of okadaic acid
Chain of Protein phosphatase 2A (P67775 whole entry): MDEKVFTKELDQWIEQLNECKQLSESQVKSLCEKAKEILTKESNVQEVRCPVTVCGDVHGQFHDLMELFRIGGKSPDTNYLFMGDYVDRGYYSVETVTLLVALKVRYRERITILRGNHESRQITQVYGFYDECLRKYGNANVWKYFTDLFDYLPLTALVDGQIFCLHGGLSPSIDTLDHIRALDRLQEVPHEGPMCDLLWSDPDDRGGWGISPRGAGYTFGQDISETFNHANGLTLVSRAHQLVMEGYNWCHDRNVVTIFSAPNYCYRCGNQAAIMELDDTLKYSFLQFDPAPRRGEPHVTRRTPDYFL

FIN13 transcripts = experiment: Regulation of FIN13 transcripts in PC12 cells; format: cell-based, rat; settings: starved PC12 cells
Method: as §1, with “Bioproducts). For stimulation with growth factors, NIH 3T3 cells were grown to 60-80% confluence, starved for 48 h in DMEM containing 0.5% CS and then stimulated with 50 ng/ml recombinant human FGF-4 or 10% CS for up to 24 h. Where indicated 10 μg/ml cycloheximide was added simultaneously with the growth factor. PC12 cells were starved for 48 h in DMEM containing 4.9 g/l glucose, 0.1% HS and 5% FBS for up to 24 h.” for “Bioproducts).”
Cells were starved for 48 h in 0.2% serum and then stimulated with either serum or FGF-4. […] Similar regulation of FIN13 was observed when starved PC12 cells were stimulated with FGF-4 with maximum expression detected at 12 h which decreased until 96 h.

CC/C(=C(/CC)c1ccc(O)cc1)c1ccc(O)cc1 [DES, diethylstilbesterol]
expression of fin13 mRNA in ovaries (FIN13 mRNA [1]): increases expression

O=C(O)CN(CCN(CC(=O)O)CC(=O)O)CC(=O)O [EDTA]
effect on his-FIN13 phosphatase activity (his-FIN13): abolished activity | effect on FIN13 activity in 9E10 IPs (myc-FIN13; EDTA 10 mM): abolished

C[C@@H]1C[C@@H]([C@H](O)CC2CC(=O)NC(=O)C2)C(=O)[C@@H](C)C1 [cycloheximide]
induction of FIN13 mRNA by FGF-4 in presence of protein synthesis inhibitor (FIN13 mRNA [2]; 18 h FGF-4, 10 mg/ml cycloheximide): did not result in induction of FIN13

C=C1[C@@H](O)[C@@H]2O[C@]3(CC[C@H](/C=C/[C@@H](C)[C@@H]4CC(C)=C[C@@]5(O[C@H](C[C@@](C)(O)C(=O)O)CC[C@H]5O)O4)O3)CC[C@H]2O[C@@H]1[C@@H](O)C[C@H](C)[C@H]1O[C@@]2(CCCCO2)CC[C@H]1C [okadaic acid]
effect on his-FIN13 phosphatase activity (his-FIN13; 1 μM okadaic acid): not inhibited | effect on PP2A activity (Protein phosphatase 2A): abolished

B1: FGF-4: recombinant human fibroblast growth factor 4 (protein, UniProt P08620 31-206, looked up)
Fibroblast growth factor 4: APTAPNGTLEAELERRWESLVALSLARLPVAAQPKEAAVQSGAGDYLLGIKRLRRLYCNVGIGFHLQALPDGRIGGAHADTRDSLLELSPVERGVVSIFGVASRFFVAMSSKGKLYGSPFFTDECTFKEILLPNNYNAYESYKYPGMFIALSKNGKTKKGNRVSPTMKVTHFLPRL
time of maximum FIN13 expression (FIN13 transcripts): 12 h | maximum induction of FIN13 mRNA (FIN13 mRNA [2]; 18 h stimulation of NIH 3T3 cells): 6 fold

B2: myc-FIN13: FIN13 N-terminally fused to the myc epitope, expressed from pRKmyc-FIN13 (protein)
chain: T1 sequence (Q61074 151-542 limits assumed)
phosphatase activity of immunoprecipitate in vitro (myc-FIN13; IP with 9E10 or 630, okadaic acid and MnCl2 present): exhibited phosphatase activity
